Holding throughout (type): in vivo
Test [1] deals with Solanum nigrum (SOLNI). In words: Pre-emergence biological efficacy, glasshouse, 1000 g/ha, evaluated after 13 days (100=total damage to plant; 0=no damage to plant). As to conditions: Solanum nigrum, 312 h, rate 1,000 g/ha, read-out: Percentage damage caused to weed species, pre-emergence, SOLNI. The method, boiled down:
(§1)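 Seeds were sown in standard soil in pots, then grown in a controlled glasshouse at 24/16° C. day/night, 14 hours light and 65% humidity, with watering twice daily.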

The subject of test [2] is Amaranthus retroflexus (AMARE). The test is described as above. Conditions: Amaranthus retroflexus, 312 h, rate 1,000 g/ha, read-out: Percentage damage caused to weed species, pre-emergence, AMARE. An outline of the steps:
as §1

Test [3] concerns Ipomoea hederaceae (IPOHE). The description is as above. Conditions: Ipomoea, 312 h, rate 1,000 g/ha, read-out: Percentage damage caused to weed species, pre-emergence, IPOHE. The method, boiled down: as §1
The subject of test [4] is Alopecurus myosuroides (ALOMY). The description is as above. Conditions: Alopecurus myosuroides, 312 h, rate 1,000 g/ha, read-out: Percentage damage caused to weed species, pre-emergence, ALOMY. The method, boiled down: as §1
For test [5], the system named is Echinochloa crus-galli (ECHCG). Described as above. As to conditions: Echinochloa crus-galli, 312 h, rate 1,000 g/ha, read-out: Percentage damage caused to weed species, pre-emergence, ECHCG. An outline of the steps:
as §1

The test system of test [6] is Setaria faberi (SETFA). The description is as above. Conditions: Setaria faberi, 312 h, rate 1,000 g/ha, read-out: Percentage damage caused to weed species, pre-emergence, SETFA. The method, boiled down:
as §1

Test [7] deals with Solanum nigrum (SOLNI). In words: Post-emergence biological efficacy, glasshouse, 500 or 1000 g/ha, evaluated after 13 days (100=total damage to plant; 0=no damage to plant). Conditions: Solanum nigrum, 312 h, rate 1,000 g/ha, read-out: Percentage damage caused to weed species, post-emergence, SOLNI. The method, boiled down: (§2)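 Sow seeds in standard potting soil. Treat after emergence. Keep treated plants in the glasshouse at 24° C. by day and 16° C. by night, with a 14-hour photoperiod, 65% humidity and two waterings daily.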

The subject of test [8] is Amaranthus retroflexus (AMARE). The test is described as above. As to conditions: Amaranthus retroflexus, 312 h, rate 1,000 g/ha, read-out: Percentage damage caused to weed species, post-emergence, AMARE. An outline of the steps:
as §2

In test [9] the test system is Ipomoea hederaceae (IPOHE). The test is described as above. As to conditions: Ipomoea, 312 h, rate 1,000 g/ha, read-out: Percentage damage caused to weed species, post-emergence, IPOHE. The method, boiled down: as §2
Test [10] has as its system Alopecurus myosuroides (ALOMY). The description is as above. As to conditions: Alopecurus myosuroides, 312 h, rate 1,000 g/ha, read-out: Percentage damage caused to weed species, post-emergence, ALOMY. The method, boiled down:
as §2

Test [11] has as its system Setaria faberi (SETFA). The description is as above. As to conditions: Setaria faberi, 312 h, rate 1,000 g/ha, read-out: Percentage damage caused to weed species, post-emergence, SETFA. An outline of the steps: as §2
For test [12], the system named is Echinochloa crusgaffi (ECHCG). The test is described as above. Conditions: Echinochloa, 312 h, rate 1,000 g/ha, read-out: Percentage damage caused to weed species, post-emergence, ECHCG. The method, boiled down:
as §2

Data on nine molecules can be found in patent publication US20120202690A1, “HERBICIDAL COMPOUNDS” (SYNGENTA LIMITED, priority 2009, published 2012).

`COc1ccc(Cn2cc(C)c3c(C(=O)O)nc(-c4ccc(Cl)c(OC)c4F)nc32)cc1` [Compound 10-63, 4-Carboxy-2-(4-chloro-2-fluoro-3-methoxyphenyl)-7-(4-methoxyphenyl-methyl)-5-methyl-7H-pyrrolo[2,3-d]pyrimidine]: the pest or weed control at 1000 g/ha (in the test on Solanum nigrum (SOLNI) [1]; in [2]; in test [3]; in test [4]; in [5]; in the test with Setaria faberi (SETFA) [6]) was 0% in each case. The pest or weed control at 1000 g/ha in the test with Solanum nigrum (SOLNI) [7] was 20%; in [8], 10%; in [9], 20%; in [10] it was 0%; with Setaria faberi (SETFA) [11] it was 0%; in test [12], 0%.

`COC(=O)c1nc(-c2ccc(Cl)c(F)c2)nc2c1ccn2Cc1ccco1` [Compound 11-18, 2-(4-Chloro-3-fluorophenyl)-7-(2-furanyl-methyl)-4-methoxycarbonyl-7H-pyrrolo[2,3-d]pyrimidine]: the pest or weed control at 1000 g/ha (in the test on Solanum nigrum (SOLNI) [1]; in test [2]; in [3]; in [4]; in test [5]; with Setaria faberi (SETFA) [6]) was 0% each time. The pest or weed control at 1000 g/ha in the test with Solanum nigrum (SOLNI) [7] is 50%; in test [8] it was 0%; in test [9], 20%; in [10], 0%; in the test with Setaria faberi (SETFA) [11] it was 0%; in [12], 0%.

Consider `Cc1cc2c(C(=O)O)nc(-c3ccc(Cl)c(F)c3)nc2n1Cc1ccco1` [Compound 11-21, 4-Carboxy-2-(4-chloro-3-fluorophenyl)-7-(2-furanyl-methyl)-6-methyl-7H-pyrrolo[2,3-d]pyrimidine], for which the pest or weed control at 1000 g/ha (in the test on Solanum nigrum (SOLNI) [1]; in test [2]; in test [3]; in test [4]; in test [5]; in the test on Setaria faberi (SETFA) [6]) was 0% throughout. Also, the pest or weed control at 1000 g/ha is 50% in the test on Solanum nigrum (SOLNI) [7]; 0% in test [8]; 20% in test [9]; 0% in test [10]; 0% in the test with Setaria faberi (SETFA) [11]; 0% in test [12].

As to `COC(=O)c1nc(-c2ccc(Cl)c(OC)c2F)nc2c1cc(C)n2Cc1ccco1` [Compound 11-66, 2-(4-Chloro-2-fluoro-3-methoxyphenyl)-7-(2-furanylmethyl)-4-methoxycarbonyl-6-methyl-7H-pyrrolo[2,3-d]pyrimidine], the pest or weed control at 1000 g/ha (with Solanum nigrum (SOLNI) [1]; in [2]; in [3]; in test [4]; in test [5]; in the test with Setaria faberi (SETFA) [6]) was 0% each time. In addition, the pest or weed control at 1000 g/ha in the test on Solanum nigrum (SOLNI) [7] is 50%; in [8], 20%; in [9] it was 30%; in test [10], 10%; in the test on Setaria faberi (SETFA) [11], 10%; in test [12], 20%.

In the case of `COC(=O)c1nc(Cl)nc2c1cc(C)n2Cc1ccco1` [Compound 11-126, 2-chloro-7-(2-furanylmethyl)-4-methoxycarbonyl-6-methyl-7H-pyrrolo[2,3-d]pyrimidine], the pest or weed control at 1000 g/ha (in the test on Solanum nigrum (SOLNI) [1]; in test [2]; in test [3]; in [4]; in test [5]; in the test on Setaria faberi (SETFA) [6]) was 0% each time. The pest or weed control at 1000 g/ha in the test with Solanum nigrum (SOLNI) [7] came out at 20%; in [8], 0%; in [9], 0%; in test [10] it was 0%; with Setaria faberi (SETFA) [11] it was 0%; in test [12], 0%.

`COc1c(Cl)ccc(-c2nc(C(=O)O)c3c(C)cn(Cc4ccc(C(F)(F)F)o4)c3n2)c1F` [Compound 12-63, 4-Carboxy-2-(4-chloro-2-fluoro-3-methoxyphenyl)-7-(5-trifluoromethyl-furan-2-yl-methyl)-5-methyl-7H-pyrrolo[2,3-d]pyrimidine]: the pest or weed control at 1000 g/ha with Solanum nigrum (SOLNI) [1] was 0%; in [2], 60%; in test [3] it was 10%; in test [4] it was 0%; in [5] it was 0%; in the test with Setaria faberi (SETFA) [6], 20%. The pest or weed control at 1000 g/ha in the test on Solanum nigrum (SOLNI) [7] is 70%; in [8] it was 30%; in test [9], 50%; in test [10], 0%; in the test on Setaria faberi (SETFA) [11], 0%; in test [12] it was 0%.

`COC(=O)c1nc(-c2ccc(Cl)c(OC)c2F)nc2c1c(C)cn2Cc1ccc(C(F)(F)F)o1` [Compound 12-64]: the pest or weed control at 1000 g/ha (in the test on Solanum nigrum (SOLNI) [1]; in test [2]; in test [3]; in [4]; in [5]; with Setaria faberi (SETFA) [6]) was 0% each time. Further, the pest or weed control at 1000 g/ha in the test on Solanum nigrum (SOLNI) [7] came out at 30%; in test [8], 20%; in test [9] it was 50%; in test [10], 10%; in the test on Setaria faberi (SETFA) [11], 30%; in test [12], 10%.

As for `O=C(O)c1nc(-c2ccc(Cl)c(F)c2)nc2c1ccn2Cc1ncccc1Cl` [Compound 14-17, 4-Carboxy-2-(4-chloro-3-fluorophenyl)-7-(3-chloropyrid-2-yl-methyl)-7H-pyrrolo[2,3-d]pyrimidine], the pest or weed control at 1000 g/ha (with Solanum nigrum (SOLNI) [1]; in [2]; in [3]; in test [4]; in test [5]; in the test on Setaria faberi (SETFA) [6]) was 0% throughout. In addition, the pest or weed control at 1000 g/ha with Solanum nigrum (SOLNI) [7] turned out to be 40%; in [8], 0%; in test [9], 10%; in test [10], 0%; in the test with Setaria faberi (SETFA) [11], 0%; in test [12], 0%.

Consider `COC(=O)c1nc(-c2ccc(Cl)c(OC)c2F)nc2c1c(C)cn2C(=O)C(C)(C)C` [Compound 16-64, 7-t-Butylcarbonyl-2-(4-chloro-2-fluoro-3-methoxyphenyl)-4-methoxycarbonyl-5-methyl-7H-pyrrolo[2,3-d]pyrimidine], for which the pest or weed control at 1000 g/ha (in the test with Solanum nigrum (SOLNI) [1]; in test [2]; in test [3]; in [4]; in test [5]; with Setaria faberi (SETFA) [6]) was 0% throughout. Also, the pest or weed control at 1000 g/ha in the test on Solanum nigrum (SOLNI) [7] came to 60%; in [8], 10%; in test [9], 70%; in test [10] it was 0%; in the test with Setaria faberi (SETFA) [11] it was 0%; in test [12] it was 0%.
